From ChEMBL document CHEMBL4196216, “Dinghupeptins A-D, Chymotrypsin Inhibitory Cyclodepsipeptides Produced by a Soil-Derived Streptomyces” (J Nat Prod, 2018) come the findings set out here.

A word on the pIC50: it is the IC50 on a negative log10 scale, so that one unit is a factor of ten. High values mean a low IC50, low ones a high IC50. The term pKi denotes the negative decadic logarithm of the Ki, by convention in mol/L. Lower therefore signals a high Ki.

In test [1] the test system is MCF7. Description: Cytotoxicity against human MCF7 cells after 72 hrs by MTT assay. It counts as functional, cell-based. Background: Tetrazolium assays rely on reduction of a dye to a coloured formazan, in cell work by metabolically active cells.
Test [2] concerns the target T1, Chymotrypsinogen A (Bos taurus, UniProt P00766). Description: Inhibition of bovine pancreas alpha-chymotrypsin using N-succinyl-Gly-Gly-Phe-p-nitroanilide as substrate incubated for 15 mins followed by substrate addition measured every 30 secs.
Test [3] concerns A549. Description: Cytotoxicity against human A549 cells after 72 hrs by MTT assay. It counts as functional, cell-based.
In the next test the target is Trypsin (Sus scrofa) (UniProt P00761). Description: Inhibition of porcine pancreas trypsin up to 100 uM using N-alpha-benzoyl-DL-Arg-p-nitroanilide hydrochloride as substrate incubated for 15 mins followed by substrate addition measured every 30 secs.
In test [4] the test system is HeLa. Description: Cytotoxicity against human HeLa cells after 72 hrs by MTT assay. It counts as functional, cell-based.
In test [5] the test system is MCF7. Description: Growth inhibition of human MCF7 cells up to 50 uM after 72 hrs by MTT assay. The test is classed as functional.
The test system of test [6] is A549. Description: Growth inhibition of human A549 cells up to 50 uM after 72 hrs by MTT assay. It counts as functional.
In test [7] the test system is HeLa. Description: Growth inhibition of human HeLa cells up to 50 uM after 72 hrs by MTT assay. It counts as functional.
Test [8] addresses Pancreatic elastase (Sus scrofa) (UniProt P08419+P00772). Description: Inhibition of porcine pancreas elastase up to 100 uM using N-succinyl-Ala-Ala-Ala-p-nitroanilide as substrate incubated for 15 mins followed by substrate addition measured every 30 secs. It counts as protein assay.
Test [9] addresses Chymotrypsinogen A (Bos taurus) (UniProt P00766). Description: Inhibition of bovine pancreas alpha-chymotrypsin up to 100 uM using N-succinyl-Gly-Gly-Phe-p-nitroanilide as substrate incubated for 15 mins followed by substrate addition measured every 30 secs.
For test [10], the target named is T1, Chymotrypsinogen A. Description: Competitive inhibition of bovine pancreas alpha-chymotrypsin using N-succinyl-Gly-Gly-Phe-p-nitroanilide as substrate incubated for 15 mins followed by substrate addition measured every 30 secs by double-reciprocal Lineweaver-Burk plot analysis.
Test [11] deals with Chymotrypsinogen A (Bos taurus) (UniProt P00766). Description: Competitive inhibition of bovine pancreas alpha-chymotrypsin using N-succinyl-Gly-Gly-Phe-p-nitroanilide as substrate incubated for 15 mins followed by substrate addition measured every 30 secs by Dixon plot analysis.

pIC50, pKi: −log10 of the molar value. Calls of active or inactive are those of the source. No cut-off for these calls is given here. Numbered stars: 1 amine (or outer) side, 2 acyl side, 3 side chain; on linkers, the order of the positions; unused ones are H or OH. Bridge positions count the residues as written; N and C are the ends. Square brackets hold non-standard residues; d marks the D form. Peptide text beside a SMILES is read from it. * marks the point of attachment. X1 = CO[C@@H]1CC[C@@H](C(=O)[*:2])N1[*:1]; NMeY = CN[C@@H](Cc1ccc(O)cc1)C(=O)O; Tigloyl = C/C=C(\C)C(=O)*; NHCH2CH2OH = OCCN*

Trypsin (Sus scrofa), sequence (P00761 whole entry): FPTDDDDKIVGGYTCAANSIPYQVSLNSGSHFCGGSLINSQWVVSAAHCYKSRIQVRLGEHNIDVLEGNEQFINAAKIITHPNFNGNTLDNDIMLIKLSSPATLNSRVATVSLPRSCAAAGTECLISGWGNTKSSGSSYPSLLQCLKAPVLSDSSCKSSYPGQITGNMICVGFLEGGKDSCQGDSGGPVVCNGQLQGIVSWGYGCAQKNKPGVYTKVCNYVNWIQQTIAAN

Regarding `C/C=C(\C)C(=O)N[C@@H](CCC(N)=O)C(=O)N[C@@H]1C(=O)N[C@@H](CCC(=O)NCCO)C(=O)N[C@H]2CC[C@@H](O)N(C2=O)[C@@H](Cc2ccccc2)C(=O)N(C)[C@@H](Cc2ccc(O)cc2)C(=O)N[C@@H](C)C(=O)O[C@@H]1C`, the outcome in the test with MCF7 [1], in the test on A549 [3] and in the test on HeLa [4] was inactive. In addition, the negative logarithm of the IC50 (pIC50) at Chymotrypsinogen A [2] was 5.68. Also, the inhibition result (on Trypsin (Sus scrofa); in test [8]) was “inactive” throughout. Further, the “growth inhibition (GI)” value with MCF7 [5], in the test on A549 [6] and with HeLa [7] was less than 30% in each case.

As to `C/C=C(\C)C(=O)N[C@@H](CCC(N)=O)C(=O)N[C@@H]1C(=O)N[C@@H](CCC(=O)NCCO)C(=O)N2CCC[C@H]2C(=O)N[C@@H](Cc2ccccc2)C(=O)N(C)[C@@H](Cc2ccc(O)cc2)C(=O)N[C@@H](C)C(=O)O[C@@H]1C` (Tigloyl-QTE(NHCH2CH2OH)PF[NMeY]A; ester 2-C), the result with MCF7 [1], with A549 [3] and with HeLa [4] was inactive. Moreover, the inhibition entry (in test [9]; at Trypsin (Sus scrofa); in test [8]) was “inactive” each time. Further, the “growth inhibition (GI)” value with MCF7 [5], with A549 [6] and in the test on HeLa [7] was less than 30% each time.

The compound `C/C=C(\C)C(=O)N[C@@H](CCC(N)=O)C(=O)N[C@@H]1C(=O)N[C@@H](CCC(=O)NCCO)C(=O)N[C@H]2CC[C@@H](OC)N(C2=O)[C@@H](Cc2ccccc2)C(=O)N(C)[C@@H](Cc2ccc(O)cc2)C(=O)N[C@@H](C)C(=O)O[C@@H]1C` gave a pKi at Chymotrypsinogen A [10] of 6.20. Also, the result in the test on MCF7 [1], in the test with A549 [3] and in the test on HeLa [4] was inactive. This compound gave a pIC50 on Chymotrypsinogen A [2] of 5.96. In addition, the inhibition entry (at Trypsin (Sus scrofa); in test [8]) was “inactive” each time. In addition, the “growth inhibition (GI)” value in the test on MCF7 [5], in the test with A549 [6] and with HeLa [7] was less than 30% each time. Besides, in [11], the inhibition entry was “Active”.

With `C/C=C(\C)C(=O)N[C@@H](CCC(N)=O)C(=O)N[C@@H]1C(=O)N[C@@H](CCC(=O)NCCO)C(=O)N2[C@H](OC)CC[C@H]2C(=O)N[C@@H](Cc2ccccc2)C(=O)N(C)[C@@H](Cc2ccc(O)cc2)C(=O)N[C@@H](C)C(=O)O[C@@H]1C` (Tigloyl-QTE(NHCH2CH2OH)[X1]F[NMeY]A; ester 2-C), the outcome in the test with MCF7 [1], in the test on A549 [3] and in the test on HeLa [4] was inactive. Moreover, the pIC50 at Chymotrypsinogen A [2] was 4.64. Besides, the inhibition entry (at Trypsin (Sus scrofa); in [8]) was “inactive” throughout. For the same compound, the “growth inhibition (GI)” value in the test with MCF7 [5], with A549 [6] and in the test on HeLa [7] was less than 30% throughout.
